Experimental data published in US20040063662A1, “Selenophene anti-tumor agents” (priority 1996, published 2004).

Tests used:
[1] = tested on: CCRF-CEM; test: NCI human tumor cell panel: CCRF-CEM (Leukemia); assay type: cell-based
[2] = tested on: MOLT-4; test: NCI human tumor cell panel: MOLT-4 (Leukemia); assay type: cell-based
[3] = tested on: RPMI-8226; test: NCI human tumor cell panel: RPMI-8226 (Leukemia); assay type: cell-based
[4] = tested on: A549/ATCC; test: NCI human tumor cell panel: A549/ATCC (Non-Small Cell Lung Cancer); assay type: cell-based
[5] = tested on: EKVX; test: NCI human tumor cell panel: EKVX (Non-Small Cell Lung Cancer); assay type: cell-based
[6] = tested on: HOP-62; test: NCI human tumor cell panel: HOP-62 (Non-Small Cell Lung Cancer); assay type: cell-based
[7] = tested on: NCI-H23; test: NCI human tumor cell panel: NCI-H23 (Non-Small Cell Lung Cancer); assay type: cell-based
[8] = tested on: HCT-116; test: NCI human tumor cell panel: HCT-116 (Colon Cancer); assay type: cell-based
[9] = tested on: HCT-15; test: NCI human tumor cell panel: HCT-15 (Colon Cancer); assay type: cell-based
[10] = tested on: HT29; test: NCI human tumor cell panel: HT29 (Colon Cancer); assay type: cell-based; details: HT-29, HT29, read-out: Log10 TGI (converted)
[11] = tested on: SW-620; test: NCI human tumor cell panel: SW-620 (Colon Cancer); assay type: cell-based
[12] = tested on: SF-295; test: NCI human tumor cell panel: SF-295 (CNS Cancer); assay type: cell-based
[13] = tested on: SF-539; test: NCI human tumor cell panel: SF-539 (CNS Cancer); assay type: cell-based
[14] = tested on: SNB-19; test: NCI human tumor cell panel: SNB-19 (CNS Cancer); assay type: cell-based
[15] = tested on: U251; test: NCI human tumor cell panel: U251 (CNS Cancer); assay type: cell-based
[16] = tested on: LOX IMVI; test: NCI human tumor cell panel: LOX IMVI (Melanoma); assay type: cell-based
[17] = tested on: MALME-3M; test: NCI human tumor cell panel: MALME-3M (Melanoma); assay type: cell-based; details: Malme-3M
[18] = tested on: UACC-62; test: NCI human tumor cell panel: UACC-62 (Melanoma); assay type: cell-based
[19] = tested on: OVCAR-3; test: NCI human tumor cell panel: OVCAR-3 (Ovarian Cancer); assay type: cell-based
[20] = tested on: OVCAR-4; test: NCI human tumor cell panel: OVCAR-4 (Ovarian Cancer); assay type: cell-based
[21] = tested on: OVCAR-8; test: NCI human tumor cell panel: OVCAR-8 (Ovarian Cancer); assay type: cell-based
[22] = tested on: 786-0; test: NCI human tumor cell panel: 786-0 (Renal Cancer); assay type: cell-based
[23] = tested on: ACHN; test: NCI human tumor cell panel: ACHN (Renal Cancer); assay type: cell-based
[24] = tested on: SN12C; test: NCI human tumor cell panel: SN12C (Renal Cancer); assay type: cell-based
[25] = tested on: UO-31; test: NCI human tumor cell panel: UO-31 (Renal Cancer); assay type: cell-based
[26] = tested on: PC-3; test: NCI human tumor cell panel: PC-3 (Prostate Cancer); assay type: cell-based
[27] = tested on: DU-145; test: NCI human tumor cell panel: DU-145 (Prostate Cancer); assay type: cell-based
[28] = tested on: HS 578T; test: NCI human tumor cell panel: HS 578T (Breast Cancer); assay type: cell-based
[29] = tested on: MDA-N; test: NCI human tumor cell panel: MDA-N (Breast Cancer); assay type: cell-based
[30] = tested on: BT-549; test: NCI human tumor cell panel: BT-549 (Breast Cancer); assay type: cell-based
[31] = tested on: HOP-92; test: NCI human tumor cell panel: HOP-92 (Non-Small Cell Lung Cancer)
[32] = tested on: NCI-H522; test: NCI human tumor cell panel: NCI-H522 (Non-Small Cell Lung Cancer)
[33] = read-out: Log10 GI50 (converted)
[34] = read-out: Log10 TGI (converted)

OCc1ccc(-c2ccc(-c3ccc(CO)s3)[se]2)s1 [compound 675343]
GI50 [1, 33]: 22.4 µM
IC (TGI) [1, 34]: 60.3 µM
GI50 ([2]; MOLT-4, read-out: Log10 GI50 (converted)): 28.8 µM
IC (TGI) ([2]; MOLT-4, read-out: Log10 TGI (converted)): 87.1 µM
GI50 ([3]; RPMI-8226, read-out: Log10 GI50 (converted)): > 100 µM
IC (TGI) ([3]; RPMI-8226, read-out: Log10 TGI): > 100 µM
GI50 [4, 33]: > 100 µM
IC (TGI) [4, 34]: > 100 µM
GI50 [5, 33]: > 100 µM
IC (TGI) [5, 34]: > 100 µM
GI50 ([6]; HOP-62, read-out: Log10 GI50 (converted)): > 100 µM
IC (TGI) ([6]; HOP-62, read-out: Log10 TGI (converted)): > 100 µM
GI50 ([7]; NCI-H23, read-out: Log10 GI50 (converted)): > 100 µM
IC (TGI) ([7]; NCI-H23, read-out: Log10 TGI (converted)): > 100 µM
GI50 ([8]; HCT-116, read-out: Log10 GI50 (converted)): < 0.01 µM
IC (TGI) ([8]; HCT-116, read-out: Log10 TGI (converted)): > 100 µM
GI50 ([9]; HCT-15, read-out: Log10 GI50 (converted)): > 100 µM
IC (TGI) ([9]; HCT-15, read-out: Log10 TGI (converted)): > 100 µM
IC (TGI) [10]: > 100 µM
GI50 ([11]; SW-620, read-out: Log10 GI50 (converted)): < 0.01 µM
IC (TGI) ([11]; SW-620, read-out: Log10 TGI (converted)): > 100 µM
GI50 ([12]; SF-295, read-out: Log10 GI50 (converted)): > 100 µM
IC (TGI) ([12]; SF-295, read-out: Log10 TGI (converted)): > 100 µM
GI50 ([13]; SF-539, read-out: Log10 GI50 (converted)): > 100 µM
IC (TGI) ([13]; SF-539, read-out: Log10 TGI (converted)): > 100 µM
GI50 ([14]; SNB-19, read-out: Log10 GI50 (converted)): > 100 µM
IC (TGI) ([14]; SNB-19, read-out: Log10 TGI (converted)): > 100 µM
GI50 ([15]; U-251, U251, read-out: Log10 GI50 (converted)): < 0.01 µM
IC (TGI) ([15]; U-251, U251, read-out: Log10 TGI (converted)): > 100 µM
GI50 [16, 33]: > 100 µM
IC (TGI) [16, 34]: > 100 µM
GI50 [17, 33]: > 100 µM
IC (TGI) [17, 34]: > 100 µM
GI50 ([18]; UACC-62, read-out: Log10 GI50 (converted)): < 0.01 µM
IC (TGI) ([18]; UACC-62, read-out: Log10 TGI (converted)): > 100 µM
GI50 ([19]; OVCAR-3, read-out: Log10 GI50 (converted)): 0.0257 µM
IC (TGI) ([19]; OVCAR-3, read-out: Log10 TGI (converted)): 32.4 µM
GI50 ([20]; OVCAR-4, read-out: Log10 GI50 (converted)): < 0.01 µM
IC (TGI) ([20]; OVCAR-4, read-out: Log10 TGI (converted)): > 100 µM
GI50 ([21]; OVCAR-8, read-out: Log10 GI50 (converted)): < 0.01 µM
IC (TGI) ([21]; OVCAR-8, read-out: Log10 TGI (converted)): > 100 µM
GI50 ([22]; 786-0, read-out: Log10 GI50 (converted)): > 100 µM
IC (TGI) ([22]; 786-0, read-out: Log10 TGI (converted)): > 100 µM
GI50 [23, 33]: > 100 µM
IC (TGI) [23, 34]: > 100 µM
GI50 [24, 33]: > 100 µM
IC (TGI) [24, 34]: > 100 µM
GI50 ([25]; UO-31, read-out: Log10 GI50 (converted)): > 100 µM
IC (TGI) ([25]; UO-31, read-out: Log10 TGI (converted)): > 100 µM
GI50 ([26]; PC-3, read-out: Log10 GI50 (converted)): > 100 µM
IC (TGI) ([26]; PC-3, read-out: Log10 TGI (converted)): > 100 µM
GI50 ([27]; DU-145, read-out: Log10 GI50 (converted)): > 100 µM
IC (TGI) ([27]; DU-145, read-out: Log10 TGI (converted)): > 100 µM
GI50 [28, 33]: > 100 µM
IC (TGI) [28, 34]: > 100 µM
GI50 [29, 33]: > 100 µM
IC (TGI) [29, 34]: > 100 µM
GI50 ([30]; BT-549, read-out: Log10 GI50 (converted)): > 100 µM
IC (TGI) ([30]; BT-549, read-out: Log10 TGI (converted)): > 100 µM
GI50 ([31]; HOP-92, read-out: Log10 GI50 (converted)): 40.7 µM
IC (TGI) ([31]; HOP-92, read-out: Log10 TGI): > 100 µM
GI50 ([32]; NCI-H522, read-out: Log10 GI50 (converted)): ≥ 100 µM
IC (TGI) ([32]; NCI-H522, read-out: Log10 TGI): > 100 µM
